pIC50, pKi: −log10 of the molar value. Non-standard residues stand in square brackets, D forms with d. Residues, ends and D or L forms follow the SMILES beside them. No end group written: not given here. *: point of attachment. Sta = CC(C)C[C@H](N)[C@@H](O)CC(=O)O; Isovaleryl = CC(C)CC(=O)*
Legend:
[1] = system: memapsin 2 (M2) cleavage of APP in HeLa cells; assay: APP beta-secretase site cleavage in HeLa cells co-transfected with APP and M2 (pulse-chase, immunoprecipitation, SDS-PAGE); format: cell-based, human; conditions: HeLa cells co-transfected with APP and M2, inhibitor included in the media
[2] = target: T1, recombinant memapsin 2 (Homo sapiens, UniProt P56817); assay: Inhibition of recombinant memapsin 2, synthetic fluorogenic peptide substrate; format: biochemical; conditions: recombinant memapsin 2, synthetic fluorogenic peptide substrate (FIG. 4A/4B)
Target sequence in this assay (P56817 46-457 limits assumed): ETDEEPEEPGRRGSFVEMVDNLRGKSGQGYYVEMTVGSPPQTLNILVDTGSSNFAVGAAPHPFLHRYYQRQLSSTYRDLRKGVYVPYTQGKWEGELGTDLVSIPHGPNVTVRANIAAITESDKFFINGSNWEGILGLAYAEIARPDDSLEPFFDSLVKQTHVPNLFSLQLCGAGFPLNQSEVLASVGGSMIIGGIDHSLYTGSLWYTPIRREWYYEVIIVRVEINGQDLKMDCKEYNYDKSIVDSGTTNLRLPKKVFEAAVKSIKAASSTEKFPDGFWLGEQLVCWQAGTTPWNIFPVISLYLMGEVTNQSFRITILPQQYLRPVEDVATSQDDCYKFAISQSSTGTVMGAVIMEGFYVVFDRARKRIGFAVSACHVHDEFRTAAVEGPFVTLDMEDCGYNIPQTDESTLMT
Description: The substrate used was a synthetic fluorogenic peptide substrate.

[3] = target: T1, recombinant memapsin 2; assay: Value; design: expressed in E. coli in two different lengths, both without the transmembrane region; 15 N-terminal residues from vector pET11a (T7 protein leader) (N); made in house; host or cells: E. coli BL21 (DE3)
Procedure: Table printed on a drawing sheet, FIG. 4A
Footnotes: [Mep2] = 0.47 µM / [Fluo. Substrate] = 29.9 µM / Buffer: Na Acetate 0.1 M, 5% DMSO, pH 4.5 at 37°C / Excitation at 350 nm / Emission at 490 nm
The patent's description of the figure: FIG. 4A is a graph of the inhibition of recombinant memapsin 2 by OM99-1.
First copying reader's note: Fit parameter (Ki) of the inhibition curve of memapsin 2 by OM99-1 plotted above the table; no unit is printed for Ki, and the plot's concentration axis is in M.
Where the first naming reader finds the target: description_of_the_figure: FIG. 4A is a graph of the inhibition of recombinant memapsin 2 by OM99-1.
Target sequence in this assay (P56817 46-457): as the sequence (P56817 46-457 limits assumed) above

[4] = target: T2, M2pd (Homo sapiens, UniProt P56817); assay: Steady-state kinetics of hydrolysis of peptide substrates by M2pd; format: biochemical; conditions: peptide substrate hydrolysed by M2pd, pH 4.0
T2 construct: 15 N-terminal residues from vector pET11a (T7 protein leader) (N, cleaved yes); made in house
Procedure: Incubation in 0.1M sodium acetate, pH 4.0, for 16 h at 22° C. auto-catalytically converted pro-M2pd to M2pd . For initial hydrolysis tests, two synthetic peptides were separately incubated with pro-M2pd in 0.1M Na acetate, pH 4.0 for different periods ranging from 2 to 18 h. The incubated samples were subjected to LC/MS for the identification of the hydrolytic products. For kinetic studies, the identified HPLC (Beckman System Gold) product peaks were integrated for quantitation. The Km and kcat values for presenilin 1 and Swedish APP peptides (Table 1) were measured by steady-state kinetics. The individual Km and Kcat values for APP peptide could not be measured accurately by standard methods, so its kcat/Km value was measured by competitive hydrolysis of mixed substrates against presenilin 1 peptide (Fersht, A. “Enzyme Structure and Mechanism”, 2nd Ed., W. H. Freeman and Company, New York. (1985)).

[5] = target: T2, M2pd; assay: Inhibition of M2pd by pepstatin A; format: biochemical

T2 sequence (P56817 14-419 limits assumed): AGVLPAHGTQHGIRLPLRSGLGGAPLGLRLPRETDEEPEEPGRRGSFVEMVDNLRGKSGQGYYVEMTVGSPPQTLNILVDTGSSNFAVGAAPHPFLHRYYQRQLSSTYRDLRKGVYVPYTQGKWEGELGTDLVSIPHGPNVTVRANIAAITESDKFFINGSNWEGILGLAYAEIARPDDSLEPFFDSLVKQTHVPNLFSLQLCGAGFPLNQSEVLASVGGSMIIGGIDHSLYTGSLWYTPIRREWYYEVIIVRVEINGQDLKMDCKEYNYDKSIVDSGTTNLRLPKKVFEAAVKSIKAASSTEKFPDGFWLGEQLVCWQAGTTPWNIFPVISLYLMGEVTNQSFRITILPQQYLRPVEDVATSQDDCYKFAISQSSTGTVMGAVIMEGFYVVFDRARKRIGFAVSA

Compound: CO/C1=C\C(C)=C\[C@@H](C)[C@@H](O)[C@@H](C)C/C(C)=C/C=C/[C@H](OC)[C@@H]([C@@H](C)[C@@H](O)[C@H](C)[C@@]2(O)C[C@@H](O)[C@H](C)[C@@H](C(C)C)O2)OC1=O [Bafilomycin A1]
- production of APP beta N- and beta C-fragments [1]: abolished the production of both APP fragments

Compound: CC(C)C[C@H](NC(=O)[C@H](CC(N)=O)NC(=O)[C@@H](N)C(C)C)[C@@H](O)C[C@@H](C)C(=O)N[C@@H](C)C(=O)N[C@@H](CCC(=O)O)C(=O)N[C@@H](Cc1ccccc1)C(=O)O [OM99-1, Val-Asn-Leu*Ala-Ala-Glu-Phe] (HELM PEPTIDE1{V.N.[CC(C)C[C@H](N[*:1])[C@@H](O)C[C@@H](C)C(=O)[*:2]].A.E.F}$$$$V2.0)
- pKi [2]: 7.52
- pKi [3]: 7.16

Compound: SVNM/AEGD (SVNMAEGD) [presenilin 1, substrate peptide derived from the processing site of presenilin 1]
- Km [4]: 15.2 mM
- kcat [4]: 0.67 s⁻¹

Compound: CC(C)CC(=O)N[C@H](C(=O)N[C@H](C(=O)N[C@@H](CC(C)C)[C@@H](O)CC(=O)N[C@@H](C)C(=O)N[C@@H](CC(C)C)[C@@H](O)CC(=O)O)C(C)C)C(C)C [Pepstatin A] (Isovaleryl-VV[Sta]A[Sta]-OH)
- pIC50 [5]: ~3.52

Compound: SEVNLDAEFR [Swedish APP peptide, SEVNL/DAEFR]
- Km [4]: 1 mM

Reference: patent publication US6545127B1, “Catalytically active recombinant memapsin and methods of use thereof” (Oklahoma Medical Research Foundation, priority 1999, dated 2003)
